# Test results published in US20240360179A1, “STAPLED PEPTIDES AND METHODS THEREOF” (FOG PHARMACEUTICALS, INC., priority 2021, published 2024).
# Test system: COLO320DM cells
# Experiment: COLO320DM proliferation assay (CellTiter-Glo)
# Assay type: cell-based, human
# Conditions: read-out: COLO320DM Proliferation Abs IC50
# Summary of the method: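 COLO320DM cells, 250 cells/well in RPMI-1640 with 4% FBS, attached 18-22 h, then exposed 96 h at 37 °C, 5% CO2 to 7-point 1/2 dilutions from 20 uM to 313 nM. Viability by CellTiter-Glo luminescence; IC50 derived from the dose curve.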
row,Compound,IC50 [µM]
1,Ac-PL3-Asp-DipA-B5-Asp-3COOHF-Ala-Ala-Phe-Lys*3-PyrS2-3Thi-34ClF-GlnR*3-Ala-Ala-[mPEG8]-Lys-NH2 [I-1703],≤ 10
2,Ac-PL3-Asp-Cha-B5-Asp-3COOHF-Ala-Ala-Phe-Lys*3-PyrS2-2ClF-BztA-GlnR*3-NH2 [I-1528],≤ 10
3,Ac-PL3-Asp-Ile-B5-Asp-3COOHF-Aib-Ala-Phe-hGlnR*3-PyrS2-Phe-34ClF-Lys*3-NH2 [I-1372],≤ 10
4,Ac-PL3-Asp-Ile-B5-Asp-3COOHF-Aib-Ala-Phe-TriAzLys*3-PyrS2-Phe-34ClF-sCH2S*3-NH2 [I-1858],≤ 10
5,Ac-PL3-Asp-DipA-B5-Asp-3COOHF-Ala-Ala-Phe-Lys*3-PyrS2-3Thi-34ClF-GlnR*3-Ala-Ala-[C18-PEG8]-Lys-NH2-NH2 [I-1792],≤ 10
6,Ac-PL3-Asp-Npg-B5-Asp-3COOHF-Aib-Ala-Phe-Lys*3-PyrS2-3Thi-34ClF-GlnR*3-NH2 [I-867],≤ 10
7,Ac-PL3-Asp-DipA-B5-Asp-3COOHF-Ala-Ala-Phe-Lys*3-PyrS2-3Thi-34ClF-GlnR*3-Ala-Ala-Ala-[mPEG8]-Lys [I-1705],≤ 10
8,Ac-PL3-Asp-DipA-B5-Asp-3COOHF-Ala-Ala-Phe-Lys*3-PyrS2-3Thi-34ClF-GlnR*3-Ala-Ala-Ala-[mPEG37]-Lys [I-1706],≤ 10
9,Ac-PL3-Asp-DipA-B5-Asp-3COOHF-Aib-Ala-Phe-Lys*3-PyrS2-3Thi-34ClF-GlnR*3-NH2 [I-1108],≤ 10
10,Ac-PL3-Asp-Npg-B5-Asp-3COOHF-Aib-Ala-Phe-Lys*3-PyrS2-[2PyAc]2NH2F-BztA-GlnR*3-Ala-NH2 [I-1740],≤ 10
11,Ac-PL3-Asp-Npg-B5-Asp-3COOHF-Aib-Ala-Phe-Lys*3-PyrS2-3Thi-BztA-GlnR*3-Ala-Lys-Leu-Pro-Val-nLeu-NH2 [I-814],≤ 10
12,Ac-PL3-Asp-Npg-B5-Asp-3COOHF-Aib-Ala-Phe-Lys*3-PyrS2-hCbA-BztA-GlnR*3-Val-Glu-Ala-NH2 [I-1345],≤ 10
13,Ac-PL3-Asp-Ile-B5-Asp-3COOHF-Aib-Ala-Phe-1MeK*3-PyrS2-Phe-34ClF-GlnR*3-NH2 [I-1369],≤ 10
14,"CC(=O)N1CCC[C@]12CC=CCCCC1(CCCC=CCCCOC(=O)N3CC[C@@]4(C3)NC(=O)[C@H](CCCCNC(=O)CC[C@@H](C(=O)N[C@@H](C)C(N)=O)NC(=O)[C@H](Cc3csc5ccccc35)NC(=O)[C@H](Cc3ccncc3)NC4=O)NC(=O)[C@H](Cc3ccccc3)NC(=O)[C@H](C)NC(=O)C(C)(C)NC(=O)[C@H](Cc3cccc(C(=O)O)c3)NC(=O)[C@H](CC(=O)O)NC1=O)NC(=O)[C@H](CC(C)(C)C)NC(=O)[C@H](CC(=O)O)NC2=O (relative stereo) [I-301, Ac-PL3-Asp-Npg-B5-Asp-3COOHF-Aib-Ala-Phe-Lys*3-PyrS2-4PyrA-BztA-GlnR*3-Ala-NH2]",> 20
15,Ac-PL3-Asp-Ile-B5-Asp-3COOHF-Ala-Ala-Phe-TriAzLys*3-PyrS2-Phe-34ClF-sCH2S*3-NH2 [I-1865],≤ 10
16,"CC(=O)N1CCC[C@]12CC=CCCCC1(CCCC=CCCCOC(=O)N3CC[C@@]4(C3)NC(=O)[C@H](CCCCNC(=O)CC[C@@H](C(=O)N[C@@H](C)C(N)=O)NC(=O)[C@H](Cc3csc5ccccc35)NC(=O)[C@H](Cc3ccsc3)NC4=O)NC(=O)[C@H](Cc3ccccc3)NC(=O)[C@H](C)NC(=O)C(C)(C)NC(=O)[C@H](Cc3cccc(C(=O)O)c3)NC(=O)[C@H](CC(=O)O)NC1=O)NC(=O)[C@H](C)NC(=O)[C@H](CC(=O)O)NC2=O (relative stereo) [I-304, Ac-PL3-Asp-Ala-B5-Asp-3COOHF-Aib-Ala-Phe-Lys*3-PyrS2-3Thi-BztA-GlnR*3-Ala-NH2]",≤ 10
17,Ac-PL3-Asp-Ile-B5-Asp-3COOHF-Ala-Ala-Phe-sAla*3-PyrS2-Phe-34ClF-TriAzLys*3-NH2 [I-1864],> 20
18,Ac-PL3-Asp-Npg-B5-Asp-3COOHF-Aib-Ala-Phe-Lys*3-PyrS2-[Nic]2NH2F-BztA-GlnR*3-Ala-NH2 [I-1754],> 20
19,Ac-PL3-Asp-Ile-B5-Asp-3COOHF-Aib-Ala-Phe-GlnR*3-PyrS2-Phe-34ClF-AsnEDA*3-NH2 [I-1376],≤ 10
20,Ac-PL3-Asp-Npg-B5-Asp-3COOHF-Aib-Ala-Phe-Lys*3-PyrS2-Phe-34ClF-GlnR*3-NH2 [I-871],≤ 10
21,Ac-PL3-Asp-Ile-B5-Asp-3COOHF-Aib-Ala-Phe-TriAzOrn*3-PyrS2-Phe-34ClF-sCH2S*3-NH2 [I-1860],≤ 10
22,"CC(=O)N1CCC[C@]12CC=CCCCC1(CCCC=CCCCOC(=O)N3CC[C@@]4(C3)NC(=O)[C@H](CCCCNC(=O)CC[C@@H](C(=O)N[C@@H](C)C(N)=O)NC(=O)[C@H](Cc3csc5ccccc35)NC(=O)[C@H](Cc3ccccn3)NC4=O)NC(=O)[C@H](Cc3ccccc3)NC(=O)[C@H](C)NC(=O)C(C)(C)NC(=O)[C@H](Cc3cccc(C(=O)O)c3)NC(=O)[C@H](CC(=O)O)NC1=O)NC(=O)[C@H](CC(C)(C)C)NC(=O)[C@H](CC(=O)O)NC2=O (relative stereo) [I-299, Ac-PL3-Asp-Npg-B5-Asp-3COOHF-Aib-Ala-Phe-Lys*3-PyrS2-2PyrA-BztA-GlnR*3-Ala-NH2]",10 to 20
23,Ac-PL3-Asp-DipA-B5-Asp-3COOHF-Ala-Ala-Phe-Lys*3-PyrS2-3Thi-34ClF-GlnR*3-Ala-Ala-[Ac-PEG8]-Lys-NH2-NH2 [I-1788],≤ 10
24,Ac-PL3-Asp-Ile-B5-Asp-3COOHF-Phe-Ala-Phe-Lys*3-PyrS2-3Thi-34MeF-GlnR*3-NH2 [I-1102],≤ 10
25,Ac-PL3-Asp-Ile-B5-Asp-3COOHF-Aib-Ala-Phe-Lys*3-PyrS2-2MeF-34ClF-GlnR*3-NH2 [I-1508],≤ 10
26,Ac-PL3-Asp-Npg-B5-Asp-3COOHF-Aib-Ala-Phe-Lys*3-PyrS2-3Thi-BztA-GlnR*3-Ala-Ala-Leu-NH2 [I-805],≤ 10
27,Ac-PL3-Asp-Npg-B5-Asp-3COOHF-Aib-Ala-Phe-Lys*3-PyrS2-hCypA-34ClF-GlnR*3-Val-Glu-Ala-NH2 [I-1349],≤ 10
28,Ac-PL3-Asp-DipA-B5-Asp-3COOHF-Ala-Ala-Phe-Lys*3-PyrS2-3Thi-34ClF-GlnR*3-Ala-Ala-[mPEG37]-Lys-NH2 [I-1704],≤ 10
29,Ac-PL3-Asp-Npg-B5-Asp-3COOHF-Aib-Ala-Phe-Lys*3-PyrS2-3Thi-BztA-GlnR*3-Ala-Val-Pro-Thr-Leu-Lys-NH2 [I-812],≤ 10
30,Ac-PL3-Asp-Npg-B5-Asp-3COOHF-Aib-Ala-Phe-Lys*3-PyrS2-hCha-BztA-GlnR*3-Val-Glu-Ala-NH2 [I-1347],> 20

# Target: T1, full-length B-Catenin (Uniprot ID P35222) (Homo sapiens, UniProt P35222)
# T1 construct: 10 nM full-length B-Catenin (Uniprot ID P35222)
# T1 sequence (P35222 1-781): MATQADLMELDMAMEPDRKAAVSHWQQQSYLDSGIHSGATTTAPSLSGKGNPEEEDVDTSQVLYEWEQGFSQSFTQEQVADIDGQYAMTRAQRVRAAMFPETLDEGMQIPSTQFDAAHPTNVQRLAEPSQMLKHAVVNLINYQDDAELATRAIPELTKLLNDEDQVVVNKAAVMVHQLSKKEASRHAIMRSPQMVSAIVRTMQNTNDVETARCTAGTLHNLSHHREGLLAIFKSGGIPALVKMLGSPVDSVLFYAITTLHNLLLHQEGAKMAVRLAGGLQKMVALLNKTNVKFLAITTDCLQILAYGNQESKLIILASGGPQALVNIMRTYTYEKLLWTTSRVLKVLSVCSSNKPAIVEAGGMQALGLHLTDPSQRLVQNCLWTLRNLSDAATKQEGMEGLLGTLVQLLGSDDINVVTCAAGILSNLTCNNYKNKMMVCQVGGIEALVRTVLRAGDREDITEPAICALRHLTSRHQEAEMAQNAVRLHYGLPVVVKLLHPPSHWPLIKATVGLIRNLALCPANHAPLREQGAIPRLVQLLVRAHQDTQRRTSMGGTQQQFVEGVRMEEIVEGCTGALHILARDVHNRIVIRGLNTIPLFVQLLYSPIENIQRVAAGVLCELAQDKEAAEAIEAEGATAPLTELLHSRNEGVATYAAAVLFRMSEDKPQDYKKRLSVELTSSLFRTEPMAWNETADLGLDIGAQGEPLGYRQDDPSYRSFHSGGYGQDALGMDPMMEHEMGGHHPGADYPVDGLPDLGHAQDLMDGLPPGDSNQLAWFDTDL
# Experiment: not given
# Assay type: binding
# Conditions: competition fluorescence polarization; read-out: beta-Catenin FP IC50
row,Compound,IC50 [µM]
1,4pentenyl-MePro-Asp-B5-Ala-Asp-3COOHF-Ala-Ala-Phe-PyrS2-Lys*3-3Thi-BztA-Ala-GlnR*3-NH2 [I-993],0.75 to 1
2,4pentenyl-ThioPro-Asp-B5-Ala-Asp-3COOHF-Ala-Ala-Phe-PyrS2-Lys*3-3Thi-BztA-Ala-GlnR*3-NH2 [I-933],> 1

# Same assay, conditions: read-out: beta-Catenin FP IC50
row,Compound,IC50 [µM]
1,Ac-PL3-Asp-Npg-B5-Asp-3COOHF-Aib-Ala-nLeu-Lys*3-PyrS2-Phe-34ClF-GlnR*3-Ala-NH2 [I-480],< 0.05
2,Ac-PL3-Asp-Npg-B5-Asp-3COOHF-CyLeu-Ala-Phe-Lys*3-PyrS2-3Thi-BztA-GlnR*3-Ala-NH2 [I-383],< 0.05
3,Ac-PL3-Asp-Npg-B5-Asp-3COOHF-Aib-Ala-Phe-Lys*3-PyrS2-3Thi-BztA-GlnR*3-Thr-Aib-NH2 [I-412],< 0.05
4,Ac-PL3-Asp-Npg-B5-Asp-3COOHF-Aib-Ala-Phe-Lys*3-PyrS2-3Thi-BztA-GlnR*3-dAla-Ser-NH2 [I-461],< 0.05
5,Ac-PL3-Asp-Npg-B5-Asp-3COOHF-Aib-Ala-Phe-Lys*3-PyrS2-3Thi-BztA-GlnR*3-dLeu-Ser-Leu-NH2 [I-468],< 0.05
6,Ac-PL3-Asp-Npg-B5-Asp-3COOHF-Aib-Ala-Phe-Lys*3-PyrS2-Phe-2NapA-GlnR*3-Ala-NH2 [I-484],< 0.05
7,Ac-PL3-Asp-Npg-B5-Asp-3COOHF-aMeDF-Ala-Phe-Lys*3-PyrS2-3Thi-BztA-GlnR*3-Ala-NH2 [I-457],< 0.05
8,Ac-PL3-Asp-Cha-B5-Asp-3COOHF-Ala-Ala-Phe-Lys*3-PyrS2-2F3MeF-BztA-GlnR*3-Ala-NH2 [I-98],< 0.05
9,Ac-PL3-Asp-Npg-B5-Asp-3COOHF-Cha-Ala-Phe-Lys*3-PyrS2-2F3MeF-BztA-GlnR*3-Ala-NH2 [I-102],< 0.05
10,Ac-PL3-Asp-Npg-B5-Asp-3COOHF-Aib-Ala-Phe-Lys*3-PyrS2-3Thi-BztA-GlnR*3-Leu-Glu-Ala-NH2 [I-495],< 0.05
11,Ac-PL3-Asp-Npg-B5-Asp-3COOHF-Aib-Ala-Phe-Lys*3-PyrS2-3Thi-BztA-GlnR*3-Leu-Thr-Ala-NH2 [I-499],< 0.05

# Same assay, conditions: read-out: beta-catenin TCF4 competition FP assay IC50
row,Compound,IC50 [µM]
1,Ac-PL3-Asp-Npg-B5-Asp-3COOHF-Aib-Ala-Phe-[oXyl]Cys-PyrS2-2F3MeF-BztA-Cys-Ala-NH2 [I-376],0.22
